Measurements taken from PubChem BioAssay AID1380 (University of Pittsburgh Molecular Library Screening Center, 2008).
Active and inactive are the calls of the source. No rule for the calls is given here.

Target: Cyclin-dependent kinase 7 (Homo sapiens) (UniProt P50613)
Assay: CDK7 kinase inhibition, dose response, counter-screen for PKD inhibitor project, biochemical, 57K library addition (AID 1380)
Conditions: CDK7 biochemical kinase assay, counterscreen

Cyclin-dependent kinase 7 (Homo sapiens), sequence (P50613 whole entry, looked up): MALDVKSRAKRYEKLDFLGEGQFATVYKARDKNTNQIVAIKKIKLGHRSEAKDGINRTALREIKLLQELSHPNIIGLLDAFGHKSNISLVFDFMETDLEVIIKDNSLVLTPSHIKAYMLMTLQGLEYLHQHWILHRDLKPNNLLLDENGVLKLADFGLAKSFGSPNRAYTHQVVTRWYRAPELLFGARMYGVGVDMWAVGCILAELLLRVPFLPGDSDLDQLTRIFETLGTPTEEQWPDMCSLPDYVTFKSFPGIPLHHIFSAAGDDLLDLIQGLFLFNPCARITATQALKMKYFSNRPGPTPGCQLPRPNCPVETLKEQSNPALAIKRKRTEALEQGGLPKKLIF

Structure (SMILES): C/C(=N\Nc1ncc(Cl)cc1Cl)c1ccccn1
- IC50: > 100 µM (inactive)
